Laboratory results reported in paper PMC12736120, “First-in-Human Phase I Clinical Trial of SLC-391, a Novel and Selective AXL Inhibitor, in Patients with Advanced Solid Tumours” (Pharmaceuticals, 2025).

Assay: Phase I safety and tolerability (DLTs, adverse events, laboratory, ECG)
Type: in vivo
Experimental: This study employed a standard 3 + 3 dose escalation design with a starting dose of 25 mg QD. […] Dose escalation decisions took into account all available data from evaluable subjects as well as PK and the safety profile of prior dose cohorts. […] There was a minimum 5-day stagger between dosing of the first and second subjects in each dose cohort. Dose escalation decisions were made by a data review committee (DRC) composed of, at minimum, the medical monitor, at least one principal investigator, and a sponsor representative, per the study DRC Plan. Dose escalation could continue until 2 or more subjects in the same dose cohort experienced a dose-limiting toxicity (DLT). DLTs were defined as Grade 3 or 4 adverse drug reactions (ADRs), with grades as defined in the National Cancer Institute Common Toxicity Criteria for Adverse Events (NCI-CTCAE) version 5.0. […] The MTD was defined as the highest dose at which no more than 1 of 6 subjects experienced a DLT during cycle 1 of the study drug. The MTD would have been exceeded if 2 or more subjects in a dose cohort of up to 6 subjects experienced a DLT. Subjects could continue treatment until disease progression, unacceptable toxicity, death, withdrawal of consent, or loss to follow-up.
Before enrolment in the study, all patients received a detailed medical history and physical examination. Clinical laboratory evaluations included clinical chemistry, complete blood count, urinalysis, coagulation factors, and a lipid panel. Other safety assessments included vital signs, physical examination, electrocardiogram, and echocardiogram with multigated acquisition (ECHO/MUGA). Safety assessments were performed on days 1, 8, 15, and 21 of cycle 1, and on day 1 of cycles 2 to 6.

[1] = Grade All, Overall Study (N = 35)
[2] = Possibly related, Overall BID (N = 15)
[3] = Possibly related, Overall QD (N = 20)
[4] = Possibly related, Overall Study (N = 35)
[5] = Probably related, Overall BID (N = 15)
[6] = Probably related, Overall QD (N = 20)
[7] = Probably related, Overall Study (N = 35)
[8] = Relatedness All, Overall BID (N = 15)
[9] = Relatedness All, Overall QD (N = 20)
[10] = Relatedness All, Overall Study (N = 35)

Nc1ncc(-c2cnn(C3CCNCC3)c2)cc1-c1nnc(CC2CC2)o1 [SLC-391, 3-(5-[cyclopropylmethyl]-1,3,4-oxadiazol-2-yl)-5-(1-[piperidin-4-yl]-1H-pyrazol-4-yl)-pyridin-2-amine]
TEAE: Musculoskeletal and connective tissue disorders [1]: 14 (40.0) n (%) | TEAE: Nausea [1]: 24 (68.6) n (%) | TEAE: Nervous system disorders [1]: 15 (42.9) n (%) | TEAE: Oedema peripheral [1]: 4 (11.4) n (%) | TEAE: Psychiatric disorders [1]: 5 (14.3) n (%) | TEAE: Pyrexia [1]: 5 (14.3) n (%) | TEAE: Renal and urinary disorders [1]: 6 (17.1) n (%) | TEAE: Respiratory, thoracic, and mediastinal disorders [1]: 19 (54.3) n (%) | TEAE: Skin and subcutaneous tissue disorders [1]: 10 (28.6) n (%) | TEAE: Urinary tract infection [1]: 4 (11.4) n (%) | TEAE: Vascular disorders [1]: 5 (14.3) n (%) | TEAE: Vomiting [1]: 17 (48.6) n (%) | TEAE: Weight decreased [1]: 6 (17.1) n (%) | Any treatment-related adverse event (TRAE) [2]: 7 (46.7%) n (%) | TRAE: Decreased appetite [2]: 1 (6.7%) n (%) | TRAE: Diarrhoea [2]: 4 (26.7%) n (%) | TRAE: Dysgeusia [2]: 1 (6.7%) n (%) | TRAE: Fatigue [2]: 3 (20.0%) n (%) | TRAE: Gastrointestinal disorders [2]: 5 (33.3%) n (%) | TRAE: General disorders and administration site conditions [2]: 3 (20.0%) n (%) | TRAE: Metabolism and nutrition disorders [2]: 1 (6.7%) n (%) | TRAE: Nausea [2]: 4 (26.7%) n (%) | TRAE: Nervous system disorders [2]: 1 (6.7%) n (%) | TRAE: Skin and subcutaneous tissue disorders [2]: 2 (13.3%) n (%) | TRAE: Vomiting [2]: 1 (6.7%) n (%) | Any treatment-related adverse event (TRAE) [3]: 8 (40.0%) n (%) | TRAE: Decreased appetite [3]: 3 (15.0%) n (%) | TRAE: Diarrhoea [3]: 5 (25.0%) n (%) | TRAE: Dysgeusia [3]: 0 n (%) | TRAE: Fatigue [3]: 2 (10.0%) n (%) | TRAE: Gastrointestinal disorders [3]: 8 (40.0%) n (%) | TRAE: General disorders and administration site conditions [3]: 3 (15.0%) n (%) | TRAE: Metabolism and nutrition disorders [3]: 4 (20.0%) n (%) | TRAE: Nausea [3]: 5 (25.0%) n (%) | TRAE: Nervous system disorders [3]: 1 (5.0%) n (%) | TRAE: Skin and subcutaneous tissue disorders [3]: 4 (20.0%) n (%) | TRAE: Vomiting [3]: 3 (15.0%) n (%) | Any treatment-related adverse event (TRAE) [4]: 15 (42.9%) n (%) | TRAE: Decreased appetite [4]: 4 (11.4%) n (%) | TRAE: Diarrhoea [4]: 9 (25.7%) n (%) | TRAE: Dysgeusia [4]: 1 (2.9%) n (%) | TRAE: Fatigue [4]: 5 (14.3%) n (%) | TRAE: Gastrointestinal disorders [4]: 13 (37.1%) n (%) | TRAE: General disorders and administration site conditions [4]: 6 (17.1%) n (%) | TRAE: Metabolism and nutrition disorders [4]: 5 (14.3%) n (%) | TRAE: Nausea [4]: 9 (25.7%) n (%) | TRAE: Nervous system disorders [4]: 2 (5.7%) n (%) | TRAE: Skin and subcutaneous tissue disorders [4]: 6 (17.1%) n (%) | TRAE: Vomiting [4]: 4 (11.4%) n (%) | Any treatment-related adverse event (TRAE) [5]: 1 (6.7%) n (%) | TRAE: Diarrhoea [5]: 1 (6.7%) n (%) | TRAE: Dysgeusia [5]: 0 n (%) | TRAE: Gastrointestinal disorders [5]: 1 (6.7%) n (%) | TRAE: Nausea [5]: 0 n (%) | TRAE: Nervous system disorders [5]: 0 n (%) | TRAE: Skin and subcutaneous tissue disorders [5]: 0 n (%) | TRAE: Vomiting [5]: 0 n (%) | Any treatment-related adverse event (TRAE) [6]: 3 (15.0%) n (%) | TRAE: Diarrhoea [6]: 0 n (%) | TRAE: Dysgeusia [6]: 1 (5.0%) n (%) | TRAE: Gastrointestinal disorders [6]: 2 (10.0%) n (%) | TRAE: Nausea [6]: 2 (10.0%) n (%) | TRAE: Nervous system disorders [6]: 2 (10.0%) n (%) | TRAE: Skin and subcutaneous tissue disorders [6]: 2 (10.0%) n (%) | TRAE: Vomiting [6]: 1 (5.0%) n (%) | Any treatment-related adverse event (TRAE) [7]: 4 (11.4%) n (%) | TRAE: Diarrhoea [7]: 1 (2.9%) n (%) | TRAE: Dysgeusia [7]: 1 (2.9%) n (%) | TRAE: Gastrointestinal disorders [7]: 3 (8.6%) n (%) | TRAE: Nausea [7]: 2 (5.7%) n (%) | TRAE: Nervous system disorders [7]: 2 (5.7%) n (%) | TRAE: Skin and subcutaneous tissue disorders [7]: 2 (5.7%) n (%) | TRAE: Vomiting [7]: 1 (2.9%) n (%) | SAEs, subjects (QD cohorts): 20.0% | TEAEs leading to treatment interruption or missed dose (QD cohorts): 20.0% | TEAEs leading to treatment or study discontinuation, subjects (QD cohorts): 20.0% | subjects with Grade 3 TEAEs (QD cohorts): 30.0% | subjects with TRAEs (QD cohorts): 90.0% | subjects with at least one TEAE (QD cohorts): 95.0% | Any treatment-related adverse event (TRAE) [8]: 13 (86.7%) n (%) | TRAE: Decreased appetite [8]: 3 (20.0%) n (%) | TRAE: Diarrhoea [8]: 7 (46.7%) n (%) | TRAE: Dysgeusia [8]: 2 (13.3%) n (%) | TRAE: Fatigue [8]: 4 (26.7%) n (%) | TRAE: Gastrointestinal disorders [8]: 11 (73.3%) n (%) | TRAE: General disorders and administration site conditions [8]: 4 (26.7%) n (%) | TRAE: Metabolism and nutrition disorders [8]: 3 (20.0%) n (%) | TRAE: Nausea [8]: 8 (53.3%) n (%) | TRAE: Nervous system disorders [8]: 2 (13.3%) n (%) | TRAE: Skin and subcutaneous tissue disorders [8]: 2 (13.3%) n (%) | TRAE: Vomiting [8]: 4 (26.7%) n (%) | Any treatment-related adverse event (TRAE) [9]: 18 (90.0%) n (%) | TRAE: Decreased appetite [9]: 5 (25.0%) n (%) | TRAE: Diarrhoea [9]: 10 (50.0%) n (%) | TRAE: Dysgeusia [9]: 2 (10.0%) n (%) | TRAE: Fatigue [9]: 5 (25.0%) n (%) | TRAE: Gastrointestinal disorders [9]: 16 (80.0%) n (%) | TRAE: General disorders and administration site conditions [9]: 6 (30.0%) n (%) | TRAE: Metabolism and nutrition disorders [9]: 6 (30.0%) n (%) | TRAE: Nausea [9]: 11 (55.0%) n (%) | TRAE: Nervous system disorders [9]: 4 (20.0%) n (%) | TRAE: Skin and subcutaneous tissue disorders [9]: 6 (30.0%) n (%) | TRAE: Vomiting [9]: 9 (45.0%) n (%) | Any treatment-related adverse event (TRAE) [10]: 31 (88.6%) n (%) | TRAE: Decreased appetite [10]: 8 (22.9%) n (%) | TRAE: Diarrhoea [10]: 17 (48.6%) n (%) | TRAE: Dysgeusia [10]: 4 (11.4%) n (%) | TRAE: Fatigue [10]: 9 (25.7%) n (%) | TRAE: Gastrointestinal disorders [10]: 27 (77.1%) n (%) | TRAE: General disorders and administration site conditions [10]: 10 (28.6%) n (%) | TRAE: Metabolism and nutrition disorders [10]: 9 (25.7%) n (%) | TRAE: Nausea [10]: 19 (54.3%) n (%) | TRAE: Nervous system disorders [10]: 6 (17.1%) n (%) | TRAE: Skin and subcutaneous tissue disorders [10]: 8 (22.9%) n (%) | TRAE: Vomiting [10]: 13 (37.1%) n (%) | deaths (after study drug discontinuation due to progressive disease): Two deaths | heme toxicity, ECG, neutrophil count, QT interval/QTcF (all subjects): no reports of heme toxicity or clinically significant abnormal ECG and neutrophil count changes, including QT interval or QTcF prolongation | TEAEs leading to drug withdrawal or study discontinuation, subjects (all subjects (7/35)): 20.0% | subjects with at least one TEAE (all subjects (34/35)): 97.1% | subjects with Grade 3 TRAEs considered related to SLC-391 (all subjects (N = 35)): 8.6% | subjects with a maximum of Grade 1 TEAEs (all subjects (N = 35)): 8.6% | subjects with a maximum of Grade 2 TEAEs (all subjects (N = 35)): 54.3% | subjects with a maximum of Grade 3 TEAEs (all subjects (N = 35)): 34.3% | subjects with dosing interrupted due to TEAEs (all subjects (N = 35)): 25.7% | subjects with one or more TRAE (all subjects (N = 35)): 88.6% | subjects with SAEs (all subjects (N = 35), eight SAEs in five subjects): 14.3% | subjects with SAEs leading to dose interruption, drug withdrawal, or study discontinuation (all subjects (N = 35), four SAEs in three subjects): 8.6% | dose recommended by the safety review committee for further investigations (based on safety profile, PK and in vitro/in vivo efficacy data): 150 mg BID | clinical chemistry-related toxicities (hypokalaemia, hypomagnesaemia, hyponatraemia, hypophosphataemia, increased blood creatinine, decreased blood zinc, all unrelated to SLC-391): Most clinical chemistry-related toxicities were Grade 1 or 2
